The values that follow come from the supplement of paper PMC11208160.

This data set can be described thus: recombinant UMI read abundance after kanamycin selection (control-corrected) (log10(CPM+1)); higher = more efficient recombination; extreme values may be limits of the assay; sequences stand for … in AGTGCAGAGAAAATCGGCCAGTTTTCTCTGCCTGCAGTCCGCATGCCGTGGGACCCCTTGGGTTCTAACCTGTTGCCTAGATTTATGCAGCGGACTGCCTTTCTCCCAAAGTGATAAACCGG…AGGTTGGTTTCACT; site = the 11-nt donor. The essentials:
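Counts of recombinant UMIs were reported as log10(CPM+1). Before that, they were converted to CPM, averaged over replicates and scaled using control-derived factors. They came from PCR across the donor–target junction after Escherichia coli carrying the pair library and target plasmid was plated on IPTG (0.07 mM) plus kanamycin, or unselected, in two replicates each.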
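Also: IS621 bridge recombinase in Escherichia coli cells against a fixed T5 target plasmid.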

“CAGCCTTCATGGACCGGTTTTCCCGGTAATCCGTATTTGGT (site GAGCCTTCTAC)”: the “recombinant UMI read abundance (log10)” value worked out at 0.00376.
For “CAGCCTTCATGGACCGGTTTTCCCGGTAATCCGTATTTGGT (site TAGCCTTCTAC)”, the “recombinant UMI read abundance (log10)” value turned out to be 0.0206.
For “CAGCCTTCATGGACCGGTTTTCCCGGTAATCCGTATTTGTG (site CAGCCTTCTCA)” the value was 0.108; for “CAGCGTGCATGGACCGGTTTTCCCGGTAATCCGTATTTGCT (site CAGCGTGCTAG)”, 2.76.
“CAGCTAGCATGGACCGGTTTTCCCGGTAATCCGTATTTGAA (site AAGCTAGCTTT)”: the “recombinant UMI read abundance (log10)” value worked out at 0.0151.
For “CAGCTAGCATGGACCGGTTTTCCCGGTAATCCGTATTTGAA (site CAGCTAGCTTT)” the value was 2.54; for “CAGCTAGCATGGACCGGTTTTCCCGGTAATCCGTATTTGAA (site GAGCTAGCTTT)”, 0.0499; for “CAGCTAGCATGGACCGGTTTTCCCGGTAATCCGTATTTGAA (site TAGCTAGCTTT)”, 0.596.
Then “CAGGCAACATGGACCGGTTTTCCCGGTAATCCGTATTTGTG (site CAGGCAACTCA)”, with 0.912; and “CAGGCGCCATGGACCGGTTTTCCCGGTAATCCGTATTTGTG (site CAAGCGCCTCA)”, with 0.0213; and “CAGGCGCCATGGACCGGTTTTCCCGGTAATCCGTATTTGTG (site CACGCGCCTCA)”, with 0.
For “CAGGCGCCATGGACCGGTTTTCCCGGTAATCCGTATTTGTG (site CAGGCGCCTCA)” the value was 0.428; for “CAGGCGCCATGGACCGGTTTTCCCGGTAATCCGTATTTGTG (site CATGCGCCTCA)”, 0.0319.
As to “CAGGGCCCATGGACCGGTTTTCCCGGTAATCCGTATTTGCA (site CAGGGCCCTTG)”, the “recombinant UMI read abundance (log10)” value worked out at 1.24.
For “CAGGGCCCATGGACCGGTTTTCCCGGTAATCCGTATTTGTT (site CAAGGCCCTAA)”, the “recombinant UMI read abundance (log10)” value came to 0.
For “CAGGGCCCATGGACCGGTTTTCCCGGTAATCCGTATTTGTT (site CACGGCCCTAA)” the value was 0.025; for “CAGGGCCCATGGACCGGTTTTCCCGGTAATCCGTATTTGTT (site CAGGGCCCTAA)”, 0.381.
Then “CAGGGCCCATGGACCGGTTTTCCCGGTAATCCGTATTTGTT (site CATGGCCCTAA)”, with 0.00426; and “CAGGGCTCATGGACCGGTTTTCCCGGTAATCCGTATTTGTT (site CAGGGCTCTAA)”, with 2.71; and “CAGGTTCCATGGACCGGTTTTCCCGGTAATCCGTATTTGAA (site CAGGTTCCTTT)”, with 1.98.
For “CAGGTTGCATGGACCGGTTTTCCCGGTAATCCGTATTTGGC (site CAGGTTGCTGC)” the value was 2.08.
For the sequence “CAGTAAGCATGGACCGGTTTTCCCGGTAATCCGTATTTGTG (site CAGTAAGCTCA)”, the “recombinant UMI read abundance (log10)” value is 2.41.
Regarding “CAGTCCACATGGACCGGTTTTCCCGGTAATCCGTATTTGGG (site CAGTCAACTCC)”, the “recombinant UMI read abundance (log10)” value was 0.00382.
For “CAGTCCACATGGACCGGTTTTCCCGGTAATCCGTATTTGGG (site CAGTCCACTCC)”, the “recombinant UMI read abundance (log10)” value turned out to be 0.00714.
For “CAGTCCACATGGACCGGTTTTCCCGGTAATCCGTATTTGGG (site CAGTCGACTCC)” the value was 0.024; for “CAGTCCACATGGACCGGTTTTCCCGGTAATCCGTATTTGGG (site CAGTCTACTCC)”, 0.
Consider “CAGTCCGCATGGACCGGTTTTCCCGGTAATCCGTATTTGCT (site CAGTCCGCTAG)”, for which the “recombinant UMI read abundance (log10)” value came to 2.64.
As for “CAGTCCTCATGGACCGGTTTTCCCGGTAATCCGTATTTGCC (site CAATCCTCTGG)”, the “recombinant UMI read abundance (log10)” value came to 2.78.
For “CAGTCCTCATGGACCGGTTTTCCCGGTAATCCGTATTTGCC (site CACTCCTCTGG)” the value was 2.05.
